The term DC50 denotes the concentration giving 50% degradation. In general, inhibition refers to the share of the control response that was lost under treatment.

Each structure is given as a SMILES string.

Test [1] has as its target T1, SMARCA2-HiBiT HeLa cells (protein which is expressed from the SMARCA2 gene) (Homo sapiens, UniProt P51531).
T1 construct: protein which is expressed from the SMARCA2 and SMARCA4 genes; host or cells: HeLa (SMARCA2-HiBiT engineered line)
In words: SMARCA2 degradation assay (HiBiT-fusion HeLa cell line, 24 h, luminescence). It counts as cell-based. Summed up: (§1)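 HeLa cells carrying HiBiT-tagged SMARCA2 or SMARCA4 were seeded at 8,000 cells/well, allowed to attach overnight at 37° C., then given compounds in a 10-point dilution series (typically 10 μM to 300 pM) for 24 hours at 37° C. Remaining tagged protein was read by HiBiT lytic luminescence, and DC50s came from dose-response curves.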

The target in test [2] is T2, SMARCA4-HiBiT HeLa cells (protein which is expressed from the SMARCA4 gene) (Homo sapiens, UniProt P51532).
T2 construct: protein which is expressed from the SMARCA2 and SMARCA4 genes; host or cells: HeLa (SMARCA4-HiBiT engineered line)
T2 sequence (P51532 whole entry): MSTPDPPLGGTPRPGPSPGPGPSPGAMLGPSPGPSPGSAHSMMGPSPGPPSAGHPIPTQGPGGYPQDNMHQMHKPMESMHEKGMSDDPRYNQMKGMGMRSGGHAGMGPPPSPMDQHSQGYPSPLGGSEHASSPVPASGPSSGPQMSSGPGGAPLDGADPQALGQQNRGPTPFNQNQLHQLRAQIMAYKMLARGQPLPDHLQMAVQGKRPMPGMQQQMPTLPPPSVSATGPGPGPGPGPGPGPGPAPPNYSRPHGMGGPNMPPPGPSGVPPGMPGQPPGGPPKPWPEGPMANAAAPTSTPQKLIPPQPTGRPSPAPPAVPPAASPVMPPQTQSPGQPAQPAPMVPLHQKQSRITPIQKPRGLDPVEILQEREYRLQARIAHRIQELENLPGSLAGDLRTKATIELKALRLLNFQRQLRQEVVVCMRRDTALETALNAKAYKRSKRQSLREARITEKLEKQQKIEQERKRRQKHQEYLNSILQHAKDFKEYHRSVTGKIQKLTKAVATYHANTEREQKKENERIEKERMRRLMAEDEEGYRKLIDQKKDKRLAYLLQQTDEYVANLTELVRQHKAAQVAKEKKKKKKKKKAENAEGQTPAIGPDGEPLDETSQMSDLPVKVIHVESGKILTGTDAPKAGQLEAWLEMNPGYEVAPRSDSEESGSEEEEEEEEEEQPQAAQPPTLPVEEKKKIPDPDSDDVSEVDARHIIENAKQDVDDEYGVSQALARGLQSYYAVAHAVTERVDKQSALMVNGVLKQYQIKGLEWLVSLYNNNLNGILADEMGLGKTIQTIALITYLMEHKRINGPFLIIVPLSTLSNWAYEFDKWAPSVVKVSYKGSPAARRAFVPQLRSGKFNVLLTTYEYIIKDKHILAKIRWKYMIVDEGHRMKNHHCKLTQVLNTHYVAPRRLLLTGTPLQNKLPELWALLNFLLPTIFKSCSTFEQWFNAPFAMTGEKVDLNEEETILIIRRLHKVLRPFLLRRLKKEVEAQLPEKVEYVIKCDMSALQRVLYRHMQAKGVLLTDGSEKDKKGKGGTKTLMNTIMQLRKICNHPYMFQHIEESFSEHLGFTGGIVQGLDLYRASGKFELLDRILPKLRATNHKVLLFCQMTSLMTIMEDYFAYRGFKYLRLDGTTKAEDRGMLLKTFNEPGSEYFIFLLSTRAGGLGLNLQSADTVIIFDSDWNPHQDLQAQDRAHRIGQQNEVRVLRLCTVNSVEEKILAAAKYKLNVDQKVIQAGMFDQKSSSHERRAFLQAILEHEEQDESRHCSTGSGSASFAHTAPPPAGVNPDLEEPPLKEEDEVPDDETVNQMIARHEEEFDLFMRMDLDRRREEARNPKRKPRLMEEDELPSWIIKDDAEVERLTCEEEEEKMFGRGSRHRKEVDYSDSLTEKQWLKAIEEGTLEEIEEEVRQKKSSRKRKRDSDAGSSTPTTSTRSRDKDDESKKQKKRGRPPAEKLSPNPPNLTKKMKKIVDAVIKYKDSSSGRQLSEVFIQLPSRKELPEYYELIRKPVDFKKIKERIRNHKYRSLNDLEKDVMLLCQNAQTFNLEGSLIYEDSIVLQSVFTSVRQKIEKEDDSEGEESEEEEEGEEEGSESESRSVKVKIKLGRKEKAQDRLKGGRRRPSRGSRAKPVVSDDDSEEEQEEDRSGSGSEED
In words: SMARCA4 degradation assay (HiBiT-fusion HeLa cell line, 24 h, luminescence). The class given is cell-based. Summed up: as §1
On the technique in general: With HiBiT, luminescence reflects the tagged protein that the partner subunit can reach.

T1 sequence (P51531 whole entry): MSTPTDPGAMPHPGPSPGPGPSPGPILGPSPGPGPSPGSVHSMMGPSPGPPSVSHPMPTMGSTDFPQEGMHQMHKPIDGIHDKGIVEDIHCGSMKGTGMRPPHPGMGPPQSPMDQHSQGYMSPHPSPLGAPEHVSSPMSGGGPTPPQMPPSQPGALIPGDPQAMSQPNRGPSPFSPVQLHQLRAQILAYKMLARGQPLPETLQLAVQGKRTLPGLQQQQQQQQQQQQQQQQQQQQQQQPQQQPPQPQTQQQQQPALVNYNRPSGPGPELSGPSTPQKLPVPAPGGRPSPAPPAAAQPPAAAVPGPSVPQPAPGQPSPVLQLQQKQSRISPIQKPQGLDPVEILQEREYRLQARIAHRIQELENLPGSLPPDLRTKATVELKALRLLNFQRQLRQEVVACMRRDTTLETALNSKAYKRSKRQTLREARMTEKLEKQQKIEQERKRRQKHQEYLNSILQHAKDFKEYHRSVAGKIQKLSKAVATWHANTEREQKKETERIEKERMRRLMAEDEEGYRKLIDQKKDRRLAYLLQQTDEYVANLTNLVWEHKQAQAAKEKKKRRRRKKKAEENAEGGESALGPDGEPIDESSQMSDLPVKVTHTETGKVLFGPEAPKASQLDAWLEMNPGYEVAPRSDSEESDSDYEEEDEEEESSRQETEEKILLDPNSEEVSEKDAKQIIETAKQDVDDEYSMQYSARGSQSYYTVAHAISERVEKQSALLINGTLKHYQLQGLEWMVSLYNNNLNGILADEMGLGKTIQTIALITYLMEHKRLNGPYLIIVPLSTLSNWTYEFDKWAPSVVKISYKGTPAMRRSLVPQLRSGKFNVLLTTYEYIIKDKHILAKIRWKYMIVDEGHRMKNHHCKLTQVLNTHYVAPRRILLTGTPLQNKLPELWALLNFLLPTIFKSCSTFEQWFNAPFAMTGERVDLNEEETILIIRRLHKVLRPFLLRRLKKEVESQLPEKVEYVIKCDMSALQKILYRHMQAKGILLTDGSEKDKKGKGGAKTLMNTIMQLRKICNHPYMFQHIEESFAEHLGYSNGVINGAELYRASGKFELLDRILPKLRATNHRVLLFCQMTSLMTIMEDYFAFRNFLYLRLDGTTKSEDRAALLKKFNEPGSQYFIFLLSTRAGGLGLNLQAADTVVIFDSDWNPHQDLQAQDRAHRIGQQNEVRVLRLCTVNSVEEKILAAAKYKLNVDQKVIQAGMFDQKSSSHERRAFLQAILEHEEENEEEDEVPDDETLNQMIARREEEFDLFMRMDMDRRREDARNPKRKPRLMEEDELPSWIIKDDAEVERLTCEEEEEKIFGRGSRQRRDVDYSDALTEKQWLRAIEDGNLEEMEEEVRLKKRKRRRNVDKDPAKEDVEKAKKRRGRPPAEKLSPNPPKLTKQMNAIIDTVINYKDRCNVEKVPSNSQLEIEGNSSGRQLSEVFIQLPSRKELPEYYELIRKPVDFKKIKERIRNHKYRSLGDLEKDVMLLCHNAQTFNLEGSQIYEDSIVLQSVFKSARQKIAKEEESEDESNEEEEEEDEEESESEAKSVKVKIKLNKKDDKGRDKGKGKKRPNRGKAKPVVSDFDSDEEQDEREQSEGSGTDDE

Consider `C[C@@H]1CCN(c2cc(-c3ccccc3O)nnc2N)CCN1c1ccnc(C#CC2CC(F)(F)C2)c1` [Compound P-396, 0-{5-[(R)-4-{2-[2-(3,3-difluorocyclobutyl)ethynyl]-4-pyridyl}-5-methyl-1,4-diazepan-1-yl]-6-amino-3-pyridazinyl}phenol], for which the half-maximal degradation concentration (DC50) in test [1] and in test [2] was 0.05 to 0.5 µM in each case. Further, the “SMARCA2 % Degradation @ 1 μM” value in test [1] (1 μM) is “+++ (+++=>70%)”. The compound further had an inhibition at 1 µM in test [2] (1 μM) of 30 to 70%.
`Nc1nnc(-c2ccccc2O)cc1N1CCCN(c2ccnc(C#CCn3ccc4ccccc43)n2)CC1` [Compound P-151, 2-(5-(4-(2-(3-(1H-indol-1-yl)prop-1-yn-1-yl)pyrimidin-4-yl)-1,4-diazepan-1-yl)-6-aminopyridazin-3-yl)phenol]: the 50% degradation concentration (DC50) in test [1] and in test [2] was 0.05 to 0.5 µM each time. In addition, the “SMARCA2 % Degradation @ 1 μM” value in test [1] (@ 1 μM) is “++ (++=30-70%)”. Also, the inhibition at 1 µM in test [2] (@ 1 μM) is 30 to 70%.
As for `C[C@@H]1CCN(c2cc(-c3ccccc3O)nnc2N)CCN1c1ccnc(C#CCN2CCCC2=O)c1` [Compound P-390, 1-[3-(4-{ (R)-4-[3-amino-6-(o-hydroxyphenyl)-4-pyridaziny1]-7-methyl-1,4-diazepan-1-yl}-2-pyridyl)-2-propynyl]-2-pyrrolidinone], the DC50 in test [1] and in test [2] was 0.05 to 0.5 µM in each case. In addition, in test [1] (1 μM), the “SMARCA2 % Degradation @ 1 μM” value was “+++ (+++=>70%)”. The compound further gave an inhibition at 1 µM in test [2] (1 μM) above 70%.
Regarding `Nc1nnc(-c2ccccc2O)cc1N1CCCN(c2ccnc(C#CCN[C@H]3CCOC3)n2)CC1` [Compound P-275, 0-{5-[4-(2-{3-[(S)-tetrahydro-3-furylamino]-1-propynyl}-4-pyrimidinyl)-1,4-diazepan-1-yl]-6-amino-3-pyridaziny1}phenol], the 50% degradation concentration (DC50) in test [1] and in test [2] was 0.05 to 0.5 µM throughout. Besides, in test [1] (@ 1 μM), the “SMARCA2 % Degradation @ 1 μM” value is “+++ (+++=>70%)”. Also, the inhibition at 1 µM in test [2] (@ 1 μM) is 30 to 70%.
With `C[C@@H]1CCN(c2cc(-c3ccccc3O)nnc2N)CCN1c1ccnc(C#CCN2C[C@@H]3C[C@H]2CO3)n1` [Compound P-200], the 50% degradation concentration (DC50) in test [1] and in test [2] was 0.05 to 0.5 µM each time. In test [1] (@ 1 μM), the “SMARCA2 % Degradation @ 1 μM” value is reported as “+++ (+++=>70%)”. The inhibition at 1 µM in test [2] (@ 1 μM) lay within 30 to 70%.
For `C[C@@H]1CCN(c2cc(-c3ccccc3O)nnc2N)CCN1c1ccnc(C#C[C@@H](C)O)c1` [Compound P-401, 0-{5-[(R)-4-{2-[(R)-3-hydroxy-1-butynyl]-4-pyridyl}-5-methyl-1,4-diazepan-1-yl]-6-amino-3-pyridazinyl}phenol], the 50% degradation concentration (DC50) in test [1] and in test [2] was 0.05 to 0.5 µM each time. For the same compound, in test [1] (1 μM), the “SMARCA2 % Degradation @ 1 μM” value is “+++ (+++=>70%)”. The inhibition at 1 µM in test [2] (1 μM) is above 70%.
Take `C[C@@H]1CCN(c2cc(-c3ccccc3O)nnc2N)CCN1c1ccnc(C#CCN2CCC(C)(F)C2)n1` (stereo partly drawn) [Compound P-210, o-{5-[(R)-4-{2-[3-(3-fluoro-3-methyl-1-pyrrolidinyl)-1-propynyl]-4-pyrimidinyl}-5-methyl-1,4-diazepan-1-yl]-6-amino-3-pyridaziny1} phenol]: the half-maximal degradation concentration (DC50) in test [1] and in test [2] was below 0.05 µM in each case. Besides, the “SMARCA2 % Degradation @ 1 μM” value in test [1] (@ 1 μM) was “++ (++=30-70%)”. This compound also displayed an inhibition at 1 µM in test [2] (@ 1 μM) of 30 to 70%.
Turning to `CC1CN(c2ccnc(C#CCNC(=O)c3cc4ncccn4n3)n2)CCN(c2cc(-c3ccccc3O)nnc2N)C1` (stereo not drawn) [Compound P-27, N-(3-(4-(4-(3-amino-6-(2-hydroxyphenyl)pyridazin-4-yl)-6-methyl-1,4-diazepan-1-yl)pyrimidin-2-yl)prop-2-yn-1-yl)pyrazolo[1,5-a]pyrimidine-2-carboxamide], the half-maximal degradation concentration (DC50) in test [1] and in test [2] was 0.05 to 0.5 µM throughout. Also, the “SMARCA2 % Degradation @ 1 μM” value in test [1] (@ 1 μM) is listed as “+++ (+++=>70%)”. Further, in test [2] (@ 1 μM), the inhibition at 1 µM was above 70%.
Take `Nc1nnc(-c2ccccc2O)cc1N1CCC2(CCN(c3ccnc(C#CCN4CC5CC4C5)n3)CC2)C1` [Compound P-187, o-{6-amino-5-[8-(2-{3-(2-azabicyclo[2.1.1]hex-2-yl)-1-propynyl}-4-pyrimidinyl)-2,8-diaza-2-spiro[4.5]decyl]-3-pyridazinyl}phenol]: the DC50 in test [1] and in test [2] was 0.05 to 0.5 µM each time. The “SMARCA2 % Degradation @ 1 μM” value in test [1] (@ 1 μM) is reported as “++ (++=30-70%)”. For the same compound, in test [2] (@ 1 μM), the inhibition at 1 µM fell in the range of 30 to 70%.
Turning to `COCc1cc(N2CCCN(c3cc(-c4ccccc4O)nnc3N)CC2)nc(C#CCNC(=O)c2cc3ncccn3n2)n1` [Compound P-127, N-(3-(4-(4-(3-amino-6-(2-hydroxyphenyl)pyridazin-4-yl)-1,4-diazcpan-1-yl)-6-(methoxymethyl)pyrimidin-2-yl)prop-2-yn-1-yl)pyrazolo[1,5-a]pyrimidine-2-carboxamide], the 50% degradation concentration (DC50) in test [1] and in test [2] was 0.05 to 0.5 µM throughout. The “SMARCA2 % Degradation @ 1 μM” value in test [1] (@ 1 μM) was “++ (++=30-70%)”. The same compound yielded an inhibition at 1 µM in test [2] (@ 1 μM) above 70%.
As for `CC(C)NC(=O)NCC#Cc1nccc(N2CCCN(c3cc(-c4ccccc4O)nnc3N)CC2)n1` [Compound P-327, 0-[6-amino-5-(4-{2-[3-(3-isopropylureido)-1-propynyl]-4-pyrimidinyl}-1,4-diazepan-1-yl)-3-pyridazinyl]phenol], the DC50 in test [1] and in test [2] was 0.5 to 5 µM throughout. The “SMARCA2 % Degradation @ 1 μM” value in test [1] (@ 1 μM) is “++ (++=30-70%)”. Besides, in test [2] (@ 1 μM), the inhibition at 1 µM lay in the range of 30 to 70%.
On to `C[C@@H]1CCN(c2cc(-c3ccccc3O)nnc2N)CCN1c1ccnc(C#CCN2CC(F)(F)C2)c1` [Compound P-421, 0-{5-[(R)-4-{2-[3-(3,3-difluoro-1-azetidinyl)-1-propynyl]-4-pyridyl}-5-methyl-1,4-diazepan-1-yl]-6-amino-3-pyridazinyl}phenol], for which the DC50 is 0.05 to 0.5 µM in test [1] and below 0.05 µM in test [2]. Moreover, the “SMARCA2 % Degradation @ 1 μM” value in test [1] (1 μM) is “++ (++=30-70%)”. In test [2] (1 μM), this compound came in with an inhibition at 1 µM of 30 to 70%.
`Nc1nnc(-c2ccccc2O)cc1N1CCN(c2ccnc(C#CCNC(=O)c3cnc4ccccc4n3)n2)CC1` [Compound P-72, N-(3-(4-(4-(3-amino-6-(2-hydroxyphenyl)pyridazin-4-yl)piperazin-1-yl)pyrimidin-2-yl)prop-2-yn-1-yl)quinoxaline-2-carboxamide]: the DC50 in test [1] and in test [2] was below 0.05 µM in each case. The “SMARCA2 % Degradation @ 1 μM” value in test [1] (@ 1 μM) is on record as “++ (++=30-70%)”. Also, the inhibition at 1 µM in test [2] (@ 1 μM) lay in the range of 30 to 70%.
For the compound `Nc1nnc(-c2ccccc2O)cc1N1CCCN(c2ccnc(/C=C/CNC(=O)c3cnc4ccccc4n3)n2)CC1` [Compound P-110, (E)-N-(3-(4-(4-(3-amino-6-(2-hydroxyphenyl)pyridazin-4-yl)-1,4-diazepan-1-yl)pyrimidin-2-yl)allyl)quinoxaline-2-carboxamide], the DC50 in test [1] and in test [2] was 0.05 to 0.5 µM in each case. The “SMARCA2 % Degradation @ 1 μM” value in test [1] (@ 1 μM) was “+++ (+++=>70%)”. Also, the inhibition at 1 µM in test [2] (@ 1 μM) was above 70%.
As to `CNCC#Cc1nccc(N2CCCN(c3cc(-c4ccccc4O)nnc3N)CC2)n1` [Compound P-147, 2-(6-amino-5-(4-(2-(3-(methylamino)prop-1-yn-1-yl)pyrimidin-4-yl)-1,4-diazepan-1-yl)pyridazin-3-yl)phenol], the half-maximal degradation concentration (DC50) in test [1] and in test [2] was 0.05 to 0.5 µM in each case. Besides, the “SMARCA2 % Degradation @ 1 μM” value in test [1] (@ 1 μM) is listed as “++ (++=30-70%)”. Also, the inhibition at 1 µM in test [2] (@ 1 μM) lay within 30 to 70%.

The values above are taken from patent US20260265238A1, “COMPOUNDS AND PHARMACEUTICAL COMPOSITIONS THAT DEGRADE SWI/SNF-RELATED MATRIX-ASSOCIATED ACTIN-DEPENDENT REGULATOR OF CHROMATIN SUBFAMILY A” (Plexium, Inc., priority 2023, published 2026).
